The subject of data set [1] is human osteoblasts (SaM-1). The experiment in a line: Mineralization (Ca and P accumulation in extracellular matrices) of human osteoblasts. Type of data set: cell-based. To be noted: SaM-1 cells, 32 days, 2 mM glycerophosphoric acid. The procedure: Employed were cultured human osteoblasts (SaM-1), which had been established from the periosteum of an ulna of a person obtained during a surgical operation of a fractured bone. Those SaM-1 cells were equipped with all the characteristics of osteoblasts (Koshihara, Y. et al.: In Vitro Cell, Dev. Biol., 25, 37-43, 1989). SaM-1 cells are known to promote mineralization in the presence of 2 mM a-glycerophosphoric acid, depending upon the concentration of 1α,25(OH)2D3.
SaM-1 cells of 18 PDL (population doubling level) were seeded to a 12-well plate, and cultured to a confluent state. a-Glycerophosphoric acid, a mineralization promoter, was then added to 2 mM. […]
Ca in each extracellular matrix was quantitated by using a kit (“Calcium C Test Wako”) based on the o-cresolphthalein complexone method (OCPC method).
After completion of the culture, the cells were washed with Hanks' solution. […] Five minutes later, the reaction mixtures were measured by an absorptiometer (570 nm)(FIG. 6).
P in each extracellular matrix was quantitated by the method proposed by Chen et al. (Chen, P. S. et al.: Anal. Chem., 28, 1756-1758, 1956).
0.84% Ammonium molybdate, 2 N sulfuric acid and 10% ascorbic acid were mixed at 3:3:1 (volume ratio) to prepare a reaction reagent. The extracts (100 μL) obtained in the above-described Ca quantitation were each diluted with distilled water (800 μL). […]

In data set [2] the test system is human bone marrow cells (monocytes). The experiment in a line: Formation of TRAP-positive polykaryocytes in culture of human bone marrow monocytes. Type of data set: cell-based. The procedure: (1) Human bone marrow cells obtained during an artificial caput replacement operation were subjected to density-gradient centrifugation to collect monocytes. Those monocytes were seeded into α-MEM medium, which contained 20% equine serum and 10^−8 M 1α,25(OH)2D3, to give 8×10^5 cells/well (079 cm^2), and were then cultured for […]. The cultures were each replaced twice a week by a half of its volume each time. Addition of ACNQ was conducted at the beginning.
On the 16th day of culture, the cultures were treated with pronase and EDTA to eliminate stromal cells. On the following day, the cells were washed with PBS(−) and then immobilized with formalin. The formalin-immobilized cells were subjected to TRAP staining, and the TRAP-positive polykaryocyte counts of the respective wells were determined. Vitamin K1 was used as a control.

For data set [3], the system named is stromal cell line ST-2 derived from mouse bone marrow. The experiment in a line: Cytotoxicity of ACNQ by MTT assay in ST-2 cells. Type of data set: cell-based. To be noted: at the peak concentration of ALP activity, 1 μg/mL (FIG. 5). As to the method:
(§1) The cells were washed with PBS, and then immobilized with ethanol for 1 minute. An enzyme reaction solution (a buffer containing p-nitrophenyl phosphate, 0.1 M glycine, 1 mM MgCl2 and 0.1 mM ZnCl2 as substrates, pH 10.5) of 37° C. was added to have the cells reacted at 37° C. for 30 minutes. An equiamount of 0.05 N NaOH was added to quench the reaction. ALP activity was expressed in terms of units, with 1 unit representing the amount of p-nitrophenol formed in a minute per mg-protein as measured in terms of absorbance at 415 nm). Protein contents were determined using a protein assay kit (product of Bio-Rad Lab.). Further, the cytotoxicity of ACNQ was measured by MTT assay (FIG. 5).
A general note: Tetrazolium dyes change colour on reduction, which living cells bring about.

For data set [4], the system named is primary osteoblast-like interstitial cells and bone marrow cells of ddY mice. The data set is described as follows: Osteoclast formation in co-culture of mouse osteoblast-like interstitial cells and bone marrow cells. Type of data set: cell-based. An excerpt:
(2) The calvaria of ddY mice newborn were enzymatically treated (with a mixed solution of collagenase and disperse) to obtain primary osteoblast-like interstitial cells. On the other hand, bone marrow cells were isolated from the femurs and shinbones of the same strain mice (males of 6 to 9 weeks of age). The primary osteoblast-like interstitial cells and bone marrow cells were co-cultured in the presence of ACNQ to investigate differentiation induction effect of ACNQ on osteoclasts.
Using αMEM added with 10% FBS, a culture which contained the primary osteoblast-like interstitial cells and the bone marrow cells at a cell count ratio of about 1:20 was co-cultured in the presence of 10^−8 M to 10^−10 M 1α,25(OH)2D3 for 6 to 8 days. During the culture period, ACNQ solutions of various concentrations and as a control for comparison, vitamin K2 which is known to inhibit the formation of osteoclasts, were added, respectively, upon culture medium replacement (replaced by a half of the volume of the culture medium; replaced on every third days).
Cells, which were positive to TRAP staining and internally contained 3 or more nuclei per cell, were collected as differentiated osteoclasts. […]

Data set [5] deals with human osteoblasts (SaM-1). The experiment in a line: Cytotoxicity by free LDH in culture supernatant of SaM-1 cells. Type of data set: cell-based. The settings on record: 32nd day of culture, 10^−5 M to 10^−7 M (FIG. 8). The procedure:
Using “LDH-Cytotoxic Test Wako” (cytotoxicity assay kit), free LDH in each culture supernatant was measured to investigate the cytotoxicity of ACNQ. Culture supernatants on the 32nd day of culture were sampled, and subsequent to a staining reaction, their LDH concentrations were measured by using a microplate reader (540 nm).

Data set [6] deals with osteoclast-like polykaryocytes from ddY mouse co-culture. The data set is described as follows: Formation of bone resorption lacunae on a piece of dentinum by osteoclasts. Type of data set: cell-based. The settings on record: 24 hours on dentinum, even at the highest concentration, 7.5 μg/mL (FIG. 11). As to the method:
Investigated was the effect of ACNQ on the formation of bone resorption lacunae on a piece of dentinum by osteoclasts.
As in the test (2) of Test 4, a culture (20 mL) containing primary osteoblast-like interstitial cells, which had been derived from the calvariae of ddY mice newborn, and bone marrow cells, which had been isolated from the femurs and shinbones of the same strain mice (males of 6 to 9 weeks of age), at a ratio of 1×10^6 cells to 1×10^7 cells in a 100 mm dish was co-cultured for 6 to 8 days on a collagen gel in αMEM medium in which 10% FEB and 10^−8 M 1α,25(OH)2D3 had been added. Medium replacement was conducted on every third days. After the culture, a 0.2% collagenase solution was added. The thus-obtained mixture was gently shaken at 37° C. for 20 minutes to digest the collagen gel, and differentiation-induced osteoclast-like polykaryocytes were collected. The count of osteoclasts obtained by this method was at most 4×10^4 cells/100 mm-dish.
(§2) Those osteoclast-like polykaryocytes were prepared to 4×10^3 cells/mL with αMEM medium containing 10% FBS, seeded at 100 μL/well into wells (96 wells) in which pieces of dentinum were placed, respectively, and cultured at 37° C. for 2 hours. […] After the staining solution was removed, resorption lacunae formed in the surface of each piece of dentinum as a result of binging by […] were counted under a microscope. […]

Data set [7] concerns osteoclasts from ddY mouse co-culture. The experiment in a line: Cytotoxicity against osteoclasts on a piece of dentinum. The class given is cell-based. The settings on record: differentiated and matured mouse osteoclasts (FIG. 11). The procedure: A still further investigation was also conducted on TRAP-positive cells formed by a co-culture system of primary osteoblast-like interstitial cells derived from the calvaria of a mouse newborn and mouse bone marrow cells. […] Effects of ACNQ on the activity of a bone re sorbing system were then investigated. Measured were the formation of resorption lacunae and cytotoxicity on a piece of dentinum in an osteoclast forming system by co-culture of primary osteoblast-like interstitial cells derived from the calvaria of the above mouse newborn and mouse bone marrow cells.
as §2, with “hours. After the culture, the individual cultures were transferred to 24 wells or 48 wells in which a culture medium was placed at 0.5 to 1.5 mL/well. At the same time, ACNQ solutions of various concentrations were added to the wells, respectively, followed by culture at 37° C. for 24 hours.” for “hours.”

Data set [8] relates to stromal cell line ST-2 derived from mouse bone marrow. The experiment in a line: ALP activity of ST-2 cells cultured with ACNQ (osteogenesis promoting effect). Type of data set: cell-based. As to the method:
Cells of the stromal cell line ST-2 derived from mouse bone marrow (Udagawa, N. et al.: Endocrinology 125, 1805-1813, 1989) were used as osteoblasts. These cells have similar osteoclast differentiation inducing ability for bone marrow cells as osteoblasts.
The cells were seeded in the individual wells of a 96-well plate at 4×10^4 cells/well, and cultured for 1 day in RPMI 1640 medium which contained 10% FBS, penicillin G and streptomycin.
The medium was replaced by the same medium which contained ACNQ, and cultured further for 3 days. After the culture, the ALP activity of cells was assayed.
as §1

The next data set concerns osteoclast formation. To be noted: side chains of vitamin K1 or K2; Hara, K. et al.: Bone, 16, 179-184, 1995; cited from earlier work.

These results are taken from patent publication US7709537B1, “Food materials useful in preventing and ameliorating metabolic bone diseases and preventives/remedies for metabolic bone diseases comprising these materials” (Meiji Dairiese Corporation, priority 1999, dated 2010).

On to `C=C1/C(=C\C=C2/CCC[C@]3(C)[C@@H]([C@H](C)CCCC(C)(C)O)CC[C@@H]23)C[C@@H](O)C[C@@H]1O` [1α,25(OH)2D3, reference compound], for which the “mineralization (Ca and P accumulation)” value in data set [1] (10^−8 M to 10^−9 M (FIGS. 6 and 7)) is “promote mineralization concentration-dependently”.

For the compound `NC1=C(C(=O)O)C(=O)c2ccccc2C1=O` [ACNQ, 2-amino-3-carboxy-1,4-naphthoquinone], the “formation of osteoclasts (TRAP-positive polykaryocytes)” value in data set [2] (human monocytes with 10^−8 M 1α,25(OH)2D3, ACNQ 10^−8 M to 10^−5 M (FIG. 9)) is listed as “inhibited the formation of osteoclasts concentration-dependently”. The “inhibitory effect on osteoclast formation compared with vitamin K1” value in data set [2] (human monocytes, same concentration as vitamin K1 (FIG. 9)) is on record as “significantly stronger than that available from vitamin K1”. In data set [3], the “cytotoxicity (MTT assay, viable cell count)” value is recorded as “cytotoxicity was not observed at all”. Also, the “differentiation and maturation of monocytes into osteoclasts (TRAP-positive cells with 3 or more nuclei)” value in data set [4] (mouse co-culture with 1α,25(OH)2D3, 6 to 8 days, ACNQ 0.15 to 15 μg/mL (FIG. 10)) is “inhibited differentiation and maturation”. Also, in data set [4] (mouse co-culture, ACNQ at 1.5 μg/mL and higher (FIG. 10)), the formation of osteoclasts entry was “considerably inhibited the formation of osteoclasts”. In addition, in [1] (10^−5 M to 10^−7 M (FIGS. 6 and 7)), the “mineralization (Ca and P accumulation)” value is on record as “promote mineralization concentration-dependently”. In data set [5], the “cytotoxicity (free LDH in culture supernatant)” value is listed as “not determined to show cytotoxicity”. Further, in data set [6], the “bone resorbing activity of osteoclasts (resorption lacunus counts)” value is on record as “did not lower the bone resorbing activity of osteoclasts”. Besides, the cytotoxicity against osteoclasts result in data set [7] is listed as “does not exhibit cytotoxicity against osteoclasts”. Also, in data set [8] (3 days culture (FIG. 4)), the “ACNQ concentration at which ALP activity reached the peak” value is about 1 µg/mL. Moreover, the “ALP activity of the cells” value in data set [8] (3 days culture, up to an ACNQ concentration of 1 μg/mL (FIG. 4)) is reported as “increased concentration-dependently”.

In the case of `C/C(=C\CO)CCC[C@H](C)CCC[C@H](C)CCCC(C)C` [phytol], the osteoclast-formation inhibitory effect result in the data set on osteoclast formation was “weak in the inhibitory effect”.
